Measured values taken from patent US10123985B2, “Therapeutic strategies for treating mitochondrial disorders” (Whitehead Institute for Biomedical Research, priority 2015, dated 2018).
“Also recorded” adds a separate entry of the source.

Experiments:
Assay type in all cases: cell-based
143B CytB cells [1] = test: Measurement of NAD+/NADH (NAD/NADH Glo) in 143B CytB cells; conditions: absence or presence of the substance
Method: NAD^+/NADH measurements were done using a modified version of manufacturer instructions of NAD/NADH Glo Assay (Promega). Cells were plated and treated as for proliferation assays and cell extracts were taken 6 hours after treatment. For extraction, cells were quickly washed 3 times in ice cold PBS, extracted in 100 μL ice cold lysis buffer (1% Dodecyltrimethylammonium bromide (DTAB) in 0.2 N NaOH diluted 1:1 with PBS), and immediately frozen at −80° C. To measure NADH, 20 μL of sample was moved to PCR tubes and incubated at 75° C. for 30 min, where the basic conditions will selectively degrade NAD^+. To measure NAD^+, 20 μL of the samples was moved to PCR tubes containing 20 μL lysis buffer and 20 μL 0.4 N HCl and incubated at 60° C. for 15 min, where acidic conditions will degrade NADH. Following incubations, samples were allowed to equilibrate to room temperature and then quenched by neutralizing with 20 μL 0.25 M Tris in 0.2 N HCl (NADH) or 20 μL 0.5 M Tris base (NAD^+). Manufacturer instructions were followed thereafter to measure NAD^+/NADH.

143B CytB cells [2] = test: Purine nucleotide extraction and LC-MS analysis
Method: 143B CytB cells were seeded at 400,000 cells/well in 6 well dishes overnight. The following day, cells were washed 2 times in PBS and media was changed to proliferation assay media with or without the indicated treatments. After 15 hours polar metabolites were extracted from cells using 250 μL of ice cold 80% methanol. After scraping the cells, 250 μL of chloroform was added before vortexing for 10 min at 4° C. and centrifugation for 10 min at 4° C. at 16,000 g, 40 μL of the top, water-methanol, layer was transferred into a LC-MS tube and samples were analyzed. A Dionex UltiMate 3000 ultra-high performance liquid chromatography system connected to a Q Exactive benchtop Orbitrap mass spectrometer, equipped with an Ion Max source and a HESI II probe (Thermo Fisher Scientific) was used to quantify metabolites. Samples were separated by chromatography by injecting 10 μL of sample on a SeQuant ZIC-pHILIC Polymeric column (2.1×150 mm 5 μM, EMD Millipore). Flow rate was set to 150 μL/min, temperatures were set to 25° C. for column compartment and 4° C. for autosampler sample tray. Mobile Phase A consisted of 20 mM ammonium carbonate, 0.1% ammonium hydroxide. Mobile Phase B was 100% acetonitrile. The mobile phase gradient (% B) was set in the following protocol: 0-20 min.: linear gradient from 80% to 20% B; 20-20.5 min.: linear gradient from 20% to 80% B; 20.5-28 min.: hold at 80% B. Mobile phase was introduced into the ionization source set to the following parameters: sheath gas=40, auxiliary gas=15, sweep gas=1, spray voltage=−3.1 kV, capillary temperature=275° C., S-lens RF level=40, probe temperature=350° C. Metabolites were monitored using full scan in negative mode in the range of 285-700 m/z, with the resolution set at 140,000, the AGC target at 106, and the maximum injection time at 250 msec. Relative quantitation of metabolites was performed with XCalibur QuanBrowser 2.2 (Thermo Fisher Scientific) using a 5 ppm mass tolerance and referencing an in-house retention time library of chemical standards.

143B CytB cells [3] = test: Proliferation assay of respiration-incompetent 143B CytB cybrid cells; conditions: for Proliferation rate of 143B CytB cells: media supplemented with the substance, no pyruvate unless tested, uridine present
Method: FL5.12 cells were cultured in the same medium and supplemented with 5 μg/mL recombinant mouse IL-3 (R&D Systems). […] All cells incubated at 37° C. with 5% CO2.
Adherent cell lines growing in log phase were trypsinized, counted, and plated onto 6 well dishes (Corning) in 2 mL complete DMEM and incubated overnight. […] The following day, one plate of cells was counted to determine the initial cell count at the time of treatment. Cells were washed 2 times with 2 mL phosphate buffered saline (PBS) and 4 mL media premixed with the indicated treatments was added. FL5.12 cells, a suspension cell line, were washed 2 times in PBS and added directly to media containing the indicated treatments and 5 μg/mL recombinant mouse IL-3. Proliferation rate assay media was DMEM without pyruvate containing 10% dialyzed FBS, penicillin-streptomycin, and 0.1 mg/mL uridine, unless otherwise noted. […] Cells were counted using Cellometer Auto T4 Plus Cell Counter (Nexcelom Bioscience). Proliferation rate was determined using the following formula: Proliferation Rate (Doublings per day)=(log2(Final cell count (day 5)/Initial cell count (day 1))/4 (days)

143B WT cybrid cells = test: Proliferation assay of respiration-competent 143B WT cybrid cells; conditions: presence or absence of the substance
Method: (§1) 143B, A172, H1299, HeLa, U87 and MEF cells were cultured in Dulbecco's Modified Eagle's Medium (DMEM) (Gibco) supplemented with 10% fetal bovine serum (FBS) and penicillin-streptomycin. FL5.12 cells were cultured in the same medium and supplemented with 5 μg/mL recombinant mouse IL-3 (R&D Systems). 143B cybrid cell lines (WT Cybrid and CytB) were cultured in DMEM with 10% FBS, penicillin-streptomycin, and 0.1 mg/mL uridine. All cells incubated at 37° C. with 5% CO2.
(§2) Adherent cell lines growing in log phase were trypsinized, counted, and plated onto 6 well dishes (Corning) in 2 mL complete DMEM and incubated overnight. Initial seeding density was 2E4 cells per well for 143B, A172, H1299, HeLa, 143B WT Cybrid, and MEFs and 3E4 cells for 143B CytB and U87 cells. The following day, one plate of cells was counted to determine the initial cell count at the time of treatment. Cells were washed 2 times with 2 mL phosphate buffered saline (PBS) and 4 mL media premixed with the indicated treatments was added. FL5.12 cells, a suspension cell line, were washed 2 times in PBS and added directly to media containing the indicated treatments and 5 μg/mL recombinant mouse IL-3. Proliferation rate assay media was DMEM without pyruvate containing 10% dialyzed FBS, penicillin-streptomycin, and 0.1 mg/mL uridine, unless otherwise noted. For these cell lines at these seeding densities it was determined that for 4 days the cells maintained logarithmic proliferation (data not shown), therefore final cell counts were measured 4 days after treatment. Cells were counted using Cellometer Auto T4 Plus Cell Counter (Nexcelom Bioscience). Proliferation rate was determined using the following formula: Proliferation Rate (Doublings per day)=(log2(Final cell count (day 5)/Initial cell count (day 1))/4 (days)

143B cells = test: Proliferation assay of wild-type 143B cells treated with respiration inhibitors; conditions: for Proliferation of respiration-inhibited 143B cells with supplementation: rotenone, phenformin, antimycin, myxothiazol, azide or oligomycin plus the substance; for Proliferation of rotenone treated 143B cells: wide range of rotenone doses, 1 mM AKB or 20 mM aspartate, 4 days
Method: as §1, §2

[4] = cells without AKB supplementation compared to AKB replete cells

| Compound | Cellular NAD+/NADH ratio (143B CytB cells [1]) | IMP level (143B CytB cells [2]; cells cultured without AKB compared to AKB replete cells) | AMP level (143B CytB cells [2]; [4]) | GMP level (143B CytB cells [2]; [4]) | AMP/IMP ratio (143B CytB cells [2]; upon AKB withdrawal) | GMP/IMP ratio (143B CytB cells [2]; upon AKB withdrawal) | Uridine auxotrophy of 143B CytB cells (143B CytB cells [3]; AKB in the presence or absence of uridine) | Proliferation rate of 143B CytB cells (143B CytB cells [3]) | Proliferation rate of 143B WT cybrid cells (143B WT cybrid cells) | Proliferation of respiration-inhibited 143B cells with supplementation (143B cells) | Proliferation of rotenone treated 143B cells (143B cells) | AMP level (143B CytB cells [2]; 143B CytB cells with aspartate) | GMP level (143B CytB cells [2]; 143B CytB cells with aspartate) | IMP level (143B CytB cells [2]; 143B CytB cells with aspartate) | Cell permeability (143B CytB cells [3]; inferred from supra-physiological doses required to restore growth) |
| --- | --- | --- | --- | --- | --- | --- | --- | --- | --- | --- | --- | --- | --- | --- | --- |
| CCC(=O)C(=O)O [AKB, α-ketobutyrate] | sufficient to increase the cellular NAD^+/NADH ratio | increased levels | decreased | decreased | dramatically decrease | dramatically decrease | does not alleviate uridine auxotrophy of 143B CytB cells | rescued proliferation rate of 143B CytB cells to levels similar to what was observed with pyruvate addition | does not impact proliferation of 143B WT cybrids | rescued proliferation, with proliferation rates comparable to that observed in untreated cells | restore proliferation in 143B cells over a wide range of rotenone doses |  |  |  |  |
| N[C@@H](CC(=O)O)C(=O)O [aspartate] | nor did it affect the NAD^+/NADH ratio |  |  |  |  |  |  | capable of supporting exponential growth of 143B CytB cells | did not have gross proliferation differences | Proliferation was restored in response to all ETC inhibitors | restore proliferation in 143B cells over a wide range of rotenone doses | restores AMP pools | not restored; also recorded: actually lower | relieves the accumulation of IMP | nearly impermeable to cells |
| CC(=O)C(=O)O [pyruvate] | sufficient to increase the cellular NAD^+/NADH ratio |  |  |  |  |  |  | divide at a similar rate | divide at a similar rate; also recorded: does not impact proliferation of 143B WT cybrids |  |  |  |  |  |  |
